This note sets out measurements from ChEMBL document CHEMBL1128789, “Constrained analogs of KCVFM with improved inhibitory properties against farnesyl transferase” (Bioorg Med Chem Lett, 1995).

The target of this assay is Protein farnesyltransferase (Rattus norvegicus, UniProt Q02293+Q04631). Put plainly: Inhibition of farnesyl transferase (FTase) of rat brain.

The structures appear in SMILES notation.

By IC50 is commonly meant the concentration needed to halve the response being measured. A lower IC50 goes with greater potency. `CSCC[C@H](NC(=O)[C@H]1Cc2ccccc2CN1C(=O)[C@H]1CCCN1C(=O)[C@H](CS)NC(=O)[C@@H](N)CCCCN)C(=O)O` had an IC50 of 100 µM.

For `CSCC[C@H](NC(=O)[C@@H]1Cc2ccccc2CN1C(=O)[C@H](C(C)C)N(C)C(=O)[C@H](S)NC(=O)[C@H](N)CCCCN)C(=O)O`, the IC50 worked out at 0.005 µM.

Consider `CSCC[C@H](NC(=O)[C@@H]1Cc2ccccc2CN1C(=O)[C@@H](NC(=O)[C@H](S)NC(=O)[C@H](N)CCCCN)C(C)(C)C)C(=O)O`, for which the midpoint of inhibition, the IC50, lay at 0.04 µM.

Molecule `CSCC[C@H](NC(=O)[C@H](Cc1ccccc1)NC(=O)[C@@H](NC(=O)[C@H](S)NC(=O)[C@H](N)CCCCN)C(C)C)C(=O)O` displayed a half-maximal inhibitory concentration (IC50) of 1 µM.

`CSCC[C@H](NC(=O)[C@@H]1Cc2ccccc2CN1C(=O)[C@H](NC(=O)[C@H](CS)NC(=O)[C@@H](N)CCCCN)C(C)C)C(=O)O` (stereo in doubt; form 2) showed an IC50 of 50 µM.

In turn, `CSCC[C@H](NC(=O)[C@@H]1Cc2ccccc2CN1C(=O)C(NC(=O)[C@H](S)NC(=O)C(N)CCCCN)C(C)C)C(=O)O` (single isomer, unassigned; form 2) registered an IC50 of 15 µM.

Take `CSCC[C@H](NC(=O)[C@@H](NC(=O)[C@@H](NC(=O)[C@H](S)NC(=O)[C@H](N)CCCCN)C(C)(C)C)c1ccccc1)C(=O)O`: the IC50 is 1 µM.

For the molecule `CSCC[C@H](NC(=O)[C@@H]1Cc2ccccc2CN1C(=O)[C@@H]1CCCN1C(=O)[C@H](S)NC(=O)C(N)CCCCN)C(=O)O` (single isomer, unassigned), the IC50 worked out at 2 µM.

For the molecule `CSCC[C@H](NC(=O)[C@@H]1Cc2ccccc2CN1C(=O)C(NC(=O)[C@H](S)NC(=O)C(N)CCCCN)C(C)C)C(=O)O` (single isomer, unassigned; form 1), the IC50 came to 100 µM.

Regarding `CSCC[C@H](NC(=O)[C@H](Cc1ccccc1)NC(=O)[C@H](C(C)C)N(C)C(=O)[C@H](S)NC(=O)[C@H](N)CCCCN)C(=O)O`, the IC50 amounted to 1 µM.

`CSCC[C@H](NC(=O)[C@@H]1Cc2ccccc2CN1C(=O)[C@@H](NC(=O)[C@H](S)NC(=O)C(N)CCCCN)C(C)C)C(=O)O` (single isomer, unassigned): the IC50 turned out to be 0.02 µM.

In turn, `CSCC[C@H](NC(=O)[C@@H]1Cc2ccccc2CN1C(=O)[C@H](NC(=O)[C@H](CS)NC(=O)[C@@H](N)CCCCN)C(C)C)C(=O)O` (stereo in doubt; form 1) yielded an IC50 of 100 µM.

`CSCC[C@H](NC(=O)[C@@H](NC(=O)[C@H](C(C)C)N(C)C(=O)[C@H](S)NC(=O)[C@H](N)CCCCN)c1ccccc1)C(=O)O` yielded an IC50 of 1 µM.
